Laboratory results taken from US12377083B2 (WUHAN LL SCIENCE AND TECHNOLOGY DEVELOPMENT CO., LTD., priority 2019, dated 2025).

What was measured:
Format in all cases: cell-based
[1] = tested on: A2058 (human melanoma cells); assay: A2058 cell scratch (migration) assay with LPA; settings: 10 μM LPA, scratch area at 24 h
Experimental: The activity of the compounds disclosed herein at the cell level in vitro is evaluated by A2058 (human melanoma cells, Beina Bio, BNCC341099) cell scratch assay. The inhibitory activity of the compounds against LPAR1 can be reflected by inhibition of cell scratch healing.
After the cell confluence reached 80%, the cell culture plate was taken out and the original medium was discarded. Serum-free medium was then added, and the cells were starved overnight in an incubator (37° C., 5% CO2). The cell culture plate was then taken out, and cell scratches were made along the diameter of the wells using a 200 μL pipette tip. The cell culture plate was then added with 500 μL of serum-free medium and then shaken gently to wash away the residual cells on the scratched surface, and this was repeated twice. The medium was discarded and 500 μL of 1% FBS medium containing the compound was then added, and the mixture was incubated at 37° C. for 30 min. […] Olympus CKX53 was used to observe the scratches, and MShot image analysis system was used to take pictures and measure the scratch area at 0 h. The plate was incubated in the incubator under the conditions of 37° C. and 5% CO2. 24 h later, the scratches were observed again with Olympus CKX53, and MShot image analysis system was used to take pictures and measure the scratch area at 24 h. Cell migration inhibition rate was calculated according to the following formula: […]

[2] = biological target: hLPAR1 (human lysophosphatidic acid receptor 1) (Homo sapiens, UniProt Q92633); assay: FLIPR assay of intracellular calcium increase induced by activation of hLPAR1 expressed in CHO-K1 cells; settings: CHO-K1 cells expressing hLPAR1, agonist oleoyl-L-α-lysophosphatidic acid 1 μM; read-out: LPAR1 IC50
Experimental: The antagonist property of the compounds disclosed herein was determined using the FLIPR (fluorescence imaging plate reader) method, wherein the compounds are inhibitors for the intracellular calcium increase induced by activation of hLPAR1 (human lysophosphatidic acid receptor 1, accession No. NM_001401.4) expressed in CHO-K1 cells (Chinese hamster ovary cells K1, ATCC).
Cells at 250,000 cells/mL were seeded into a 96-well plate (25,000 cells/well) 18-24 h prior to the FLIPR experiment and then incubated overnight in a cell incubator. […] Each well was added with 75 μL of […] Fluo-4 AM fluorescent dye (Thermo, F14202) and then the cells were subjected to dye-loading incubation at 37° C. for 1.0 h. The 96-well plate was then washed once with buffer, added with a buffer containing a test compound or a vehicle at 50 μL per well and then incubated for 30 min at room temperature. […] An agonist (oleoyl-L-α-lysophosphatidic acid sodium salt (Sigma, L7260)) at a final concentration of 1 μM or a vehicle (ultrapure water) was then added at 50 μL/well, fluorescence values were measured for 2 min at 1-second intervals, and finally the output fluorescence counts were analyzed.

[3] = In vitro cytotoxicity assay in HepG2 cells, CCK-8 method; settings: human
Experimental: In vitro cytotoxicity assay for the compounds disclosed herein was performed in HepG2 cells using the CCK-8 method. HepG2 cells (Beina Bio) in the logarithmic growth phase were collected, the concentration of cell suspension was adjusted, and then the cells were plated on a 96-well cell culture plate at 50,000 cells/well. The cells were then incubated overnight in a cell incubator (5% CO2, 37° C.), and after 80-90% cell confluence was achieved, test compounds or vehicle (DMSO) at various concentration gradients were added after medium change. The resulting mixture was incubated in the cell incubator (5% CO2, 37° C.) for 48 h. After the treatment, the medium in the plate was discarded. The plate was washed twice with PBS, added with CCK-8 working solution (Beyotime) at 100 μL per well, and then incubated at 37° C. for 1.5 h away from the light. Absorbance at OD450 nm was measured for each well on a microplate reader, and CC50 value of each compound was analyzed and calculated.

Sequence of hLPAR1 (human lysophosphatidic acid receptor 1) (Q92633 whole entry): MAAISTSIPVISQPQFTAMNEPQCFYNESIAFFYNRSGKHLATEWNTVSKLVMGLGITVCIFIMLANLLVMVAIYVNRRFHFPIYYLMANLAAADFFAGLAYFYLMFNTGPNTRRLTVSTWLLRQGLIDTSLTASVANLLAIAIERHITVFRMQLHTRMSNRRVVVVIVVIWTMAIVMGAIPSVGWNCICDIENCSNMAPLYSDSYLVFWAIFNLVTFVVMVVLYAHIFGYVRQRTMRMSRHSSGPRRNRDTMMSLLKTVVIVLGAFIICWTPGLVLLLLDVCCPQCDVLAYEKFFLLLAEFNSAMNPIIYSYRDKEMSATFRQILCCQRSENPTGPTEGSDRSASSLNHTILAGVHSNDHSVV

Structure (SMILES)	Cell migration inhibition rate (%) [1]	IC50 [2] [nM]	CC50 at 48 h [3] [nM]
CN(Cc1ccccc1)C(=O)OCc1ocnc1-c1ccc(O[C@H]2CCC[C@H](C(=O)O)C2)cc1 (racemic) [Compound 1, (+/−)-(1S,3S)-3-(4-(5-(((benzyl(methyl)carbamoyl)oxy)methyl)oxazol-4-yl)phenoxy)cyclohexane-1-carboxylic Acid]	C (C: 0-30%)	300 to 10000	> 200000
CN(Cc1ccccc1)C(=O)OCc1c(-c2ccc(O[C@H]3CCC[C@H](C(=O)O)C3)cc2)cnn1C (racemic) [Compound 2, (+/−)-(1S,3S)-3-(4-(5-(((benzyl(methyl)carbamoyl)oxy)methyl)-1-methyl-1H-pyrazol-4-yl)phenoxy)cyclohexane-1-carboxylic Acid]	C (C: 0-30%)	300 to 10000	> 200000
CN(C(=O)OCc1nocc1-c1ccc(O[C@H]2CCC[C@H](C(=O)O)C2)cc1)C1CCCC1 (racemic) [Compound 9, (+/−)-(1S,3S)-3-(4-(3-(((cyclopentyl(methyl)carbamoyl)oxy)methyl)isoxazol-4-yl)phenoxy)cyclohexane-1-carboxylic Acid]	C (C: 0-30%)	300 to 10000	> 200000
Cc1nc(COC(=O)N(C)C2CCCC2)c(-c2ccc(O[C@H]3CCC[C@H](C(=O)O)C3)cc2)s1 (racemic) [Compound 10, (+/−)-(1S,3S)-3-(4-(4-(((cyclopentyl(methyl)carbamoyl)oxy)methyl)-2-methylthiazol-5-yl)phenoxy)cyclohexane-1-carboxylic Acid]	C (C: 0-30%)	300 to 10000	> 200000
CN(C(=O)OCc1c(-c2ccc(O[C@H]3CCC[C@H](C(=O)O)C3)cc2)ncn1C)C1CCCC1 (racemic) [Compound 12, (+/−)-(1S,3S)-3-(4-(5-(((cyclopentyl(methyl)carbamoyl)oxy)methyl)-1-methyl-1H-imidazol-4-yl)phenoxy)cyclohexane-1-carboxylate]	C (C: 0-30%)	300 to 10000	> 200000
Cc1nc(-c2ncn(C)c2COC(=O)N(C)C2CCCC2)ccc1O[C@H]1CCC[C@H](C(=O)O)C1 (racemic) [Compound 17, (+/−)-(1S,3S)-3-((6-(5-(((cyclopentyl(methyl)carbamoyl)oxy)methyl)-1-methyl-1H-imidazol-4-yl)-2-methylpyridin-3-yl)oxy)cyclohexane-1-carboxylic Acid]	C (C: 0-30%)	50 to 300	> 200000
Cc1noc(-c2ccc(O[C@H]3CCC[C@H](C(=O)O)C3)cn2)c1COC(=O)N(C)C1CCCC1 (racemic) [Compound 35, (+/−)-(1S,3S)-3-((6-(4-(((cyclopentyl(methyl)carbamoyl)oxy)methyl)-3-methylisoxazol-5-yl)pyridin-3-yl)oxy)cyclohexane-1-carboxylic Acid]	B (B: 30-50%)		> 200000
Cc1noc(-c2ccc(O[C@H]3CCC[C@H](C(=O)O)C3)cn2)c1COC(=O)N(C)C1CC1 (racemic) [Compound 106]	B (B: 30-50%)	300 to 10000	
CN(C(=O)OCc1c(-c2ccc(O[C@H]3CCC[C@H](C(=O)O)C3)c(F)n2)cnn1C)C1CC1 (racemic) [Compound 108, (+/−) (1S,3S)-3-((6-(5-(((cyclopropyl(methyl)carbamoyl)oxy)methyl)-1-methyl-1H-pyrazol-4-yl)-2-fluoropyridin-3-yl)oxy)cyclohexane-1-carboxylic Acid]	B (B: 30-50%)	300 to 10000	
CN(C(=O)OCc1c(-c2ccc(O[C@H]3CCC[C@H](C(=O)O)C3)c(F)n2)cnn1C)C1CCC1 (racemic) [Compound 109, (+/−)-(1S,3S)-3-((6-(5-(((cyclobutyl(methyl)carbamoyl)oxy)methyl)-1-methyl-1H-pyrazol-4-yl)-2-fluoropyridin-3-yl)oxy)cyclohexane-1-carboxylic Acid]	A (A: 50-70%)	50 to 300	
CN(CC1CC1)C(=O)OCc1c(-c2ccc(O[C@H]3CCC[C@H](C(=O)O)C3)c(F)n2)cnn1C (racemic) [Compound 110, (+/−)-(1S,3S)-3-((6-(5-((((cyclopropylmethyl)(methyl)carbamoyl)oxy)methyl)-1-methyl-1H-pyrazol-4-yl)-2-fluoropyridin-3-yl)oxy)cyclohexane-1-carboxylic Acid]	B (B: 30-50%)	50 to 300	
CN(C(=O)OCc1c(-c2ccc(O[C@H]3CCC[C@H](C(=O)O)C3)c(C#N)n2)cnn1C)C1CCC1 (racemic) [Compound 112, (+/−)-(1S,3S)-3-((2-cyano-6-(5-(((cyclobutyl(methyl)carbamoyl)oxy)methyl)-1-methyl-1H-pyrazol-4-yl)pyridin-3-yl)oxy)cyclohexane-1-carboxylic Acid]	B (B: 30-50%)	50 to 300	
CN(C(=O)OCc1c(-c2ccc(O[C@H]3CCC[C@H](C(=O)O)C3)c(N)n2)cnn1C)C1CCC1 (racemic) [Compound 113, (+/−)-(1S,3S)-3-((2-amino-6-(5-(((cyclobutyl(methyl)carbamoyl)oxy)methyl)-1-methyl-1H-pyrazol-4-yl)pyridin-3-yl)oxy)cyclohexane-1-carboxylic Acid]	C (C: 0-30%)	300 to 10000	
CN(C(=O)OCc1c(-c2ccc(O[C@H]3CCC[C@H](C(=O)O)C3)c(O)n2)cnn1C)C1CCCC1 (racemic) [Compound 114, (+/−)-(1S,3S)-3-((6-(5-(((cyclopentyl(methyl)carbamoyl)oxy)methyl)-1-methyl-1H-pyrazol-4-yl)-2-hydroxypyridin-3-yl)oxy)cyclohexane-1-carboxylic Acid]	C (C: 0-30%)	300 to 10000	
CN(C(=O)COc1c(-c2ccc(O[C@H]3CCC[C@H](C(=O)O)C3)c(N3CCOCC3)n2)cnn1C)C1CCC1 (racemic) [Compound 115]	C (C: 0-30%)	300 to 10000	
CN(C(=O)OCc1c(-c2ccc(O[C@H]3CCC[C@H](C(=O)O)C3)c(CO)n2)cnn1C)C1CCC1 (racemic) [Compound 116, (+/−)-(1S,3S)-3-((6-(5-(((cyclobutyl(methyl)carbamoyl)oxy)methyl)-1-methyl-1H-pyrazol-4-yl)-2-(hydroxymethyl)pyridin-3-yl)oxy)cyclohexane-1-carboxylic Acid]	B (B: 30-50%)	300 to 10000	
CN(C(=O)OCc1c(-c2cnc(O[C@H]3CCC[C@H](C(=O)O)C3)c(O)n2)cnn1C)C1CCCC1 (racemic) [Compound 117]	B (B: 30-50%)	300 to 10000	
Cc1nc(-c2cnn(C)c2COC(=O)N(C)C2CCOCC2)ccc1O[C@H]1CCC[C@H](C(=O)O)C1 [Compound 95, (1S,3S)-3-((2-methyl-6-(1-methyl-5-(((methyl(tetrahydro-2H-pyran-4-yl)carbamoyl)oxy)methyl)-1H-pyrazol-4-yl)pyridin-3-yl)oxy)cyclohexane-1-carboxylic Acid]	C (C: 0-30%)	300 to 10000	
CN(C(=O)OCc1c(-c2cnc(O[C@H]3CCC[C@H](C(=O)O)C3)c(Cl)n2)cnn1C)C1CCCC1 [Compound 105]	B (B: 30-50%)	< 50	
